Several values for one entry are separate records, joined by “and”; a condition that tells them apart may be missing. Equal entries are not always repeated.
Key:
[1] = tested on: CLL cells (leukemic lymphocytes, MNCs); test: Mitochondrial membrane potential (CMXRos / anti-glycophorin A-FITC, flow cytometry); type: cell-based, human; details: for mean percentage of cells with lower mitochondrial potential (ΔΨm^low/Gly-A^−): 1.6 μM
Source text: Mitochondrial membrane potential is an early indicator of apoptosis. CMXRos, i.e. Chloromethyl-X-rosamine (the reagent's name by Mito Tracker Red CMXRos, Molecular Probes, USA), and a monoclonal antibody to glycophorin A conjugated with FITC (the reagent's name of Anti-Glycophorin A FITC by Dako, Denmark) were used for its assessment. CMXRos is a lipophilic cationic dye that accumulates in the mitochondrial matrix of viable cells when there is an electronegative load on the inner surface of the mitochondrial membrane. This asymmetric location of protons along the inner mitochondrial membrane leads to a high mitochondrial membrane potential (ΔΨm) in living cells. A decreased ΔΨm is one of the first symptoms of apoptosis, and in effect lowering of the mitochondrial uptake of CMXRos.
The stock CMXRos solution was prepared by dilution of the substance supplied by the manufacturer in 94 μl. DMSO (dimethylsulphoxide), and stored at […]. Then working solution was prepared also using DMSO (1:10) and stored at 4° C. Mononuclear cells, i.e. leukemic lymphocytes, at 1×10^6 MNCs/ml concentration, were incubated with CMXRos (2.5 μl working solution in 500 μl RPMI 1640 medium) at 37° C. for 30 minutes. […] The samples were next measured using flow cytometry. The percentage of cells not bound to anti-glycophorin A-FITC (ΔΨm^low/GIy-A^− cells), with low mitochondrial potential, was calculated.
All fluorescence measurements were performed by a flow cytometer FACSCalibur (Becton Dickinson, USA) equipped with an argon laser 488nm and computer program CeliQuestPro (Becton Dickinson, USA). Each time 10 000cells were evaluated. The fluorescence was measured using standard emission filters: green—FL1 (wavelength λ=530±20 nm) and red—FL3 (λ>600 nm).

[2] = tested on: CLL cells (MEC-1); test: Annexin-V / propidium iodide apoptosis test with 25%, 30%, 40%, 45% maltotriose dendrimers and FA; type: cell-based, human; details: 1.6 μM

| Compound | mean percentage of cells with lower mitochondrial potential (ΔΨm^low/Gly-A^−) ([1]; 24 h) | mean percentage of cells with lower mitochondrial potential (ΔΨm^low/Gly-A^−) ([1]; 48 h) | Ann+ IP+ (late apoptosis), mean percentage of cells ([2]; 24 h) | Ann+ IP− (early apoptosis), mean percentage of cells ([2]; 24 h) | CAI (compensating apoptotic index) ([2]; 24 h) | Ann− IP+ (necrosis), mean percentage of cells ([2]; 48 h) | CAI (compensating apoptotic index) ([2]; 48 h) | apoptosis-inducing action (mitochondrial potential) ([1]; 10 μg/ml) |
| --- | --- | --- | --- | --- | --- | --- | --- | --- |
| Nc1nc(F)nc2c1ncn2[C@@H]1O[C@H](CO)[C@@H](O)[C@@H]1O [FA, fludarabine] | 52.05% | 74.49% | 6.51% and 10.83% and 6.50% | 3.82% and 3.98% and 3.77% | 1.87% and 7.35% and 4.40% | 22.82% and 15.00% and 20.27% | 6.98% and 7.80% and 12.83% | – |
| rituximab | – | – | – | – | – | – | – | apoptosis-inducing action in order of spontaneous apoptosis |

Reference: patent US10022395B2 (UNIWERSYTET LÓDZKI, priority 2012, dated 2018)
